Source: article PMC6522510 (Nature Communications, 2019)
Counter-ions that a name gives are not always drawn. Like-named read-outs stand apart in the source and are kept apart here.

Key:
Set-up in all cases: species or system AML cell lines (8); Primary HTS, single concentration about 10 uM, Cell Titer Glo viability; log10 luminescence, per cent inhibition relative to cycloheximide control
Settings in all cases: 72 h, relative to cycloheximide control, log10 luminescence, inhibitor
[1] = test system: CHRF288-11
[2] = test system: CMK
[3] = test system: CMS
[4] = test system: M07e
[5] = test system: ML-2
[6] = test system: MOLM-13
[7] = test system: MV4-11
[8] = test system: U937

| Structure (SMILES) | CHRF288-11 %inh [1] [%] | CMK %inh [2] [%] | CMS %inh [3] [%] | M07e %inh [4] [%] | ML-2 %inh [5] [%] | MOLM-13 %inh [6] [%] | MV4-11 %inh [7] [%] | U937 %inh [8] [%] | CHRF288-11 %inh ([1]; CHRF288-11 %inh, 10 µM) [%] | CMK %inh ([2]; CMK %inh, 10 µM) [%] | CMS %inh ([3]; CMS %inh, 10 µM) [%] | M07e %inh ([4]; M07e %inh, 10 µM) [%] | ML-2 %inh ([5]; ML-2 %inh, 10 µM) [%] | MOLM-13 %inh ([6]; MOLM-13 %inh, 10 µM) [%] | MV4-11 %inh ([7]; MV4-11 %inh, 10 µM) [%] | U937 %inh ([8]; U937 %inh, 10 µM) [%] |
| --- | --- | --- | --- | --- | --- | --- | --- | --- | --- | --- | --- | --- | --- | --- | --- | --- |
| C[C@H](CC[C@@H]1OC1(C)C)[C@H]1CC[C@H]2[C@@H]3CC=C4C[C@@H](O)CC[C@]4(C)[C@H]3CC[C@]12C [SJ000561052-1, 24(S),25-EPOXYCHOLESTEROL] | 7.379 | 11.77 | 1.576 | 0.1627 | -2.235 | -3.183 | -1.379 | -2.032 | – | – | – | – | – | – | – | – |
| CC(C)=CCC[C@]1(C)[C@@H](CC=C(C)C)C[C@@]2(CC=C(C)C)C(=O)[C@]1(C(=O)C(C)C)C(=O)C(CC=C(C)C)=C2O [SJ000561062-1, HYPERFORIN] | 6.256 | 3.171 | -0.1771 | 1.526 | 4.019 | 0.05204 | 2.302 | 1.156 | – | – | – | – | – | – | – | – |
| C=CC[C@@H]1[C@H](O)CC[C@@]2(C)[C@H]1CC[C@@H]1[C@@H]2CC[C@]2(C)[C@@H]([C@H](C)CCCC(C)C)CC[C@@H]12 [SJ000561065-1, LY 295427] | -1.753 | -3.189 | -1.154 | 2.452 | 0.971 | 1.105 | 0.6492 | 1.28 | – | – | – | – | – | – | – | – |
| CC(C)=CCC/C(C)=C/CC/C(C)=C/CC/C(C)=C/CO [SJ000561066-1, GERANYLGERANIOL] | 0.138 | -0.4924 | 3.121 | 0.9105 | 1.709 | -0.5636 | 1.567 | 2.958 | – | – | – | – | – | – | – | – |
| CC1=C(/C=C/C(C)=C/C=C/C(C)=C/C(=O)O)C(C)(C)CCC1O (stereo not drawn) [SJ000561070-1, 4-HYDROXYRETINOIC ACID] | -3.112 | 1.361 | 38.35 | 7.941 | 5.11 | 7.362 | 34.76 | 18.11 | – | – | – | – | – | – | – | – |
| CCC1(CC)C(=O)NC(=O)N(C)C1=O [SJ000562691-1, METHARBITAL] | 3.211 | -5.926 | -4.139 | -1.141 | -0.4535 | -1.73 | 0.7749 | -1.698 | – | – | – | – | – | – | – | – |
| N=C1NC(=O)N2CC12 (stereo not drawn) [SJ000564440-1, IMEXON] | 28.3 | -0.6297 | 13.09 | 3.11 | 2.993 | 4.482 | 2.121 | 11.23 | – | – | – | – | – | – | – | – |
| CC(C)C(=O)OCC(=O)[C@@]12O[C@H](C3CCCCC3)O[C@@H]1C[C@H]1[C@@H]3CCC4=CC(=O)C=C[C@]4(C)[C@H]3[C@@H](O)C[C@@]12C [SJ000565158-1, CICLESONIDE] | – | – | – | – | – | – | – | – | 0.4753 | 2.034 | -0.07433 | -1.566 | -1.054 | 4.252 | -5.442 | -2.58 |
| CC(C)C(=O)OCC(=O)[C@@]12O[C@H](C3CCCCC3)O[C@@H]1C[C@H]1[C@@H]3CCC4=CC(=O)C=C[C@]4(C)[C@H]3[C@@H](O)C[C@@]12C [SJ000565158-2, CICLESONIDE] | – | – | – | – | – | – | – | – | 3.888 | 0.8609 | 2.27 | 1.744 | -2.112 | -0.3458 | -3.886 | 6.134 |
| CC(C)Nc1cccnc1N1CCN(C(=O)c2cc3cc(NS(C)(=O)=O)ccc3[nH]2)CC1 [SJ000565159-1, DELAVIRDINE MESYLATE] | -4.194 | -2.785 | -2.71 | -1.136 | -1.959 | 5.504 | 1.25 | 0.4896 | – | – | – | – | – | – | – | – |
| O=C(O[C@@H]1C[C@@H]2C[C@H]3C[C@H](C1)N2CC3=O)c1c[nH]c2ccccc12 [SJ000565162-1, DOLASETRON MESYLATE] | -2.852 | 0.6983 | -2.789 | 0.4101 | 0.9019 | 27.78 | -0.3278 | -1.048 | – | – | – | – | – | – | – | – |
| Cc1ccccc1N1CCN(CCc2nnc3n2CCCC3)CC1 [SJ000565164-1, DAPIPRAZOLE HYDROCHLORIDE] | – | – | – | – | – | – | – | – | 8.203 | -9.616 | -1.478 | -1.247 | 2.518 | 25.76 | -2.751 | -2.961 |
| Cc1ccccc1N1CCN(CCc2nnc3n2CCCC3)CC1 [SJ000565164-2, DAPIPRAZOLE HYDROCHLORIDE] | – | – | – | – | – | – | – | – | 1.908 | -2.237 | -0.5071 | 0.4169 | 1.742 | 3.696 | 0.3008 | -1.057 |
| CCCCC[C@](C)(O)/C=C/[C@@H]1[C@@H](C/C=C\CCCC(=O)O)[C@@H](O)C[C@H]1O [SJ000565165-1, CARBOPROST TROMETHAMINE] | 21.89 | -7.865 | 2.5 | -0.103 | 2.687 | 2.726 | 1.156 | -1.422 | – | – | – | – | – | – | – | – |
| CCN(CC)CCOC(=O)c1ccc(N)cc1Cl [SJ000565166-1, CHLOROPROCAINE HYDROCHLORIDE] | 2.414 | -4.183 | -2.449 | -0.3142 | 1.664 | 5.209 | 1.062 | -1.434 | – | – | – | – | – | – | – | – |
| CCCCCCCCCCCCCCCCCCCCCCO [SJ000565168-1, 1-DOCOSANOL (BEHENYL ALCOHOL)] | 5.263 | -5.554 | -0.803 | 3.056 | -0.3569 | -4.024 | -0.7251 | -0.3827 | – | – | – | – | – | – | – | – |
| CO/N=C(\C(=O)N[C@@H]1C(=O)N2C(C(=O)O)=CCS[C@H]12)c1csc(N)n1 [SJ000565169-1, CEFTIZOXIME SODIUM] | -3.529 | -4.179 | -3.365 | 1.196 | -0.7534 | -3.581 | -0.08777 | -0.2552 | – | – | – | – | – | – | – | – |
| CC1(C)O[C@@H]2C[C@H]3[C@@H]4CCC5=CC(=O)C=C[C@]5(C)[C@H]4[C@@H](O)C[C@]3(C)[C@]2(C(=O)CO)O1 [SJ000565170-1, DESONIDE] | 6.238 | 3.484 | 1.425 | 8.441 | -0.7887 | 5.492 | 0.7481 | 6.18 | – | – | – | – | – | – | – | – |
